The values below come from PMC7155171, “Probing the Open Global Health Chemical Diversity Library for Multistage-Active Starting Points for Next-Generation Antimalarials” (ACS Infectious Diseases, 2020).

Read-outs that look alike come from different tables or passages of the source.

Series [1] concerns P. falciparum Dd2 (PfLuc) line expressing firefly luciferase, asexual blood stage. Put plainly: microbe, parasite or virus in culture. Conditions: Plasmodium falciparum, DD2, Erythrocyte, read-out: CDD P. falciparum Luc 11pt dose response (96hr, n=2): IC50 (μM), 11-point. Also noted: species or system P. falciparum Dd2-luciferase in human red blood cells; PfLuc Dd2 asexual blood stage luciferase viability, BrightGlo luminescence, 96 h. On the procedure: (§1) A transgenic line of Plasmodium falciparum (Dd2) constitutively expressing firefly luciferase was used for primary and reconfirmation screening. Cultures were maintained in complete media at 5% hematocrit (Human Whole Blood O+) and incubated at 37 °C in a low oxygen environment (3% O2, 5% CO2, and 92% N2). Culture health and parasitemia were tracked by Giemsa staining and bright field microscopy. Prior to dispensing parasites for primary screening, 20 nL of test compounds and 10 nL of control compounds (artemisinin and DMSO) were seeded per well using an Echo 550 acoustic dispenser (Labcyte) for final assay concentrations of 5 and 10 μM, respectively. When parasite cultures reached 3% to 8% parasitemia, as determined by a blood smear, infected blood was centrifuged at 800g for 5 min. […] From this blood mixture, 8 μL was dispensed per well in 1536-well, white, solid-bottom plates (789173-F, Greiner) using a MultiFlo FX Multi-Mode dispenser (BioTek). Plates were covered with a porous metal lid and incubated at 37 °C inside large plastic Ziploc bags filled with a blood gas mixture (3% O2, 5% CO2, and 92% N2) for 96 h. To prevent evaporation, a clean tray of water was included within each bag. Following incubation, BrightGlo was prepared by manufacturer specifications and dispensed at 2 μL per well using the MultiFlo dispenser. Plates were left for 20 min before being read with the ViewLux uHTS microplate imager (PerkinElmer) with a 90 s exposure time at the High Sensitivity Luminescence setting. Raw data were processed using GeneData (v12.0.5), whereby activity was normalized to negative minus positive controls. The correction of Runwise Pattern (Multiplicative) was applied, and compounds were considered hits when activity was reduced by ≥70%. […] Also, plates tested in 11-point dose response format were incubated at both 48 a The primary assay was run at a compound concentration of 5 μM. Briefly, 8 μL of an ABS parasite mixture (∼10,000 parasites) was dispensed into 1536-well plates previously spotted with 64,811 GHCDL compounds (the remaining 3642 library compounds arrived later and were evaluated separately). After a 96 h incubation, 2 μL of luciferin (BrightGlo) was added, and the luminescent signal was measured. Bioluminescence was normalized to DMSO (negative control) and artemisinin-treated (positive control) wells for the single point screens. For this primary screen, assay fidelity was determined on a per plate basis using both the Z′-factor and the potency variance of the positive (artemisinin) and negative (DMSO) controls. The mean Z′ value was 0.60 (range of 0.43–0.75), with only one plate falling below our ideal 0.5 threshold (Figure S1).

Series [2] has the same test system. Put plainly: microbe, parasite or virus in culture. Also noted: species or system P. falciparum Dd2-luciferase in human red blood cells; PfLuc Dd2 asexual blood stage luciferase viability, BrightGlo luminescence, 48 h. Conditions: Plasmodium falciparum, DD2, Erythrocyte, read-out: CDD P. falciparum Luciferase 11pt dose response (48hr, n=2): IC50 (μM), 11-point. As for the experimental part:
as §1, with “From these (Sets 1 and 2),” for “The primary assay was run at a compound concentration of 5 μM. Briefly, 8 μL of an ABS parasite mixture (∼10,000 parasites) was dispensed into 1536-well plates previously spotted with 64,811 GHCDL”, “were resupplied as fresh powders” for “(the remaining 3642 library compounds arrived later”, “and” for “and were”, “in 11-point dose response tests (Pfluc; n = 2)” for “separately). After a 96 h incubation, 2 μL of luciferin (BrightGlo) was added, and the luminescent signal was measured. Bioluminescence was normalized to DMSO (negative control) and artemisinin-treated (positive control) wells”, “two time points.” for “single point screens. For this primary screen, assay fidelity was determined on a per plate basis using both the Z′-factor and the potency variance of the positive (artemisinin) and negative (DMSO) controls. The mean Z′ value was 0.60 (range of 0.43–0.75), with only one plate falling below our ideal 0.5 threshold (Figure S1).”

Another series deals with P. falciparum Dd2. Put plainly: microbe, parasite or virus in culture. Also noted: species or system P. falciparum Dd2 in human red blood cells; SYBR Green I asexual blood stage proliferation (DNA) assay, P. falciparum Dd2, 96 h. As to conditions: Plasmodium falciparum, DD2, Erythrocyte, 96 h, read-out: CDD P. falciparum Sybr Green I ABS Dd2 Dose Response: IC50 (uM).
For series [3], the system named is P. falciparum (NF54) stage V gametocytes. Put plainly: Stage V gametocyte viability assay (MitoTracker Red CMXRos high content imaging). Conditions: Plasmodium falciparum, NF54, 72 h. It is filed as cell-based, Plasmodium falciparum.
Series [4] deals with recombinant firefly luciferase (Photinus pyralis, UniProt P08659). Put plainly: biochemical.
Chain of recombinant firefly luciferase (P08659 whole entry): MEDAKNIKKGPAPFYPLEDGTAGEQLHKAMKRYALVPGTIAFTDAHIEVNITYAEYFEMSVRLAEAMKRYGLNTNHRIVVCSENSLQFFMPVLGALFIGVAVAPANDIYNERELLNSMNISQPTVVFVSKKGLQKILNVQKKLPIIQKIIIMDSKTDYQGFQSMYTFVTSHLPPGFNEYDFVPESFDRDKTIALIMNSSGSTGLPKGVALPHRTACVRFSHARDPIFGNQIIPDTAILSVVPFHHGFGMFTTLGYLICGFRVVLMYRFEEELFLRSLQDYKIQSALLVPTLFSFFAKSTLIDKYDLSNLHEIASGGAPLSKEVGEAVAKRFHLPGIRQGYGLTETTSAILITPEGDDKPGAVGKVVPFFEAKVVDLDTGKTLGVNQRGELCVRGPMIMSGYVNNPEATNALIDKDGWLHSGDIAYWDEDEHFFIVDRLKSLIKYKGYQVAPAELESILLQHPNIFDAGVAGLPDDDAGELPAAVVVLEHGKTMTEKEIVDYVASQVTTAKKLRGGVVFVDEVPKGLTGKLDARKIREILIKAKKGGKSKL
The subject of series [5] is HepG2-A16-CD81 hepatocytes. Put plainly: cells. Conditions: sheet CDD Export 1;, cytotoxicity primary screen, read-out: Table S5. Liver stage reconfirmation data / HepG2 Cytotoxicity primary screen (2uM): % Inhibition. Also noted: Uninfected hepatocyte viability, CellTiter-Glo luminescence. As for the experimental part: For the screen, 5 μL of HepG2-A16-CD81 hepatocytes containing 3 × 10^3 cells was seeded into 1536-well plates, which had been prespotted with 10 nL of library compound (2 μM final assay concentration (Figure 1)) and incubated overnight. For PbLuc infected plates, approximately 750 purified sporozoites in 5 μL of screening media were added to each well and incubated for 48 h before measuring luciferase activity. Compounds were tested for toxicity in parallel (see Methods) by measuring uninfected hepatocyte viability using CellTiter-Glo. […] This hit rate was slightly lower than expected for an agnostic library, which prompted us to rescreen the entire library at 10 μM. The PbLuc and cytotoxicity assay plates for this second replicate would be stamped in-house with 50 nL of library compound per well, using the same compound plates as the sexual stage screen described below. All the assay parameters were kept similar, except the change in concentration and shortening the time the compounds spent in each well prior to infection. […] All potential false positive effectors from the CellTiter-Glo assay were filtered from subsequent studies (Table S1). Naturally, there were more primary hits from the 10 μM than the 2 μM screen due to the higher testing concentration. For reconfirmation, we sourced all the hits that inhibited PbLuc at >70% and mean HepG2 at <50% in the 2 μM screen or PbLuc at >60% in both 2 and 10 μM screens and mean HepG2 at <50%. The resulting compounds were acquired as DMSO stocks and retested in the dose response (50–2.82 × 10^–4 μM or 25–141.13 × 10^–6 μM) against PbLuc and uninfected hepatocytes (Table S5). […] The majority of these compounds were weak inhibitors, although 18 submicromolar hits were found (Table S5).

For series [6], the system named is HepG2-A16-CD81 hepatocytes. Put plainly: HepG2 cytotoxicity screening (CellTiter-Glo). A general note: In ATP-based viability assays light output follows the ATP content of the culture.
For series [7], the system named is P. berghei liver stage (PbLuc). Put plainly: P. berghei luciferase liver stage (PbLuc) assay in HepG2-A16-CD81 hepatocytes. It is filed as cell-based, Plasmodium berghei. As to conditions: Plasmodium berghei.
A short description of a further series: in vitro. As to conditions: human.

Turning to `CN(C)CCCNCCC(c1ccccc1)C1CCOC(C)(C)C1` (centres unmarked) [DDD01026663], the IC50 is 0.627 µM in series [1], 2.82 µM in [2] and more than 1.39 µM with P. falciparum Dd2.
Take `CC(C)C[C@H](N)C(=O)N1CC2(CCNCC2)c2cc(Cl)ccc21` [DDD01029528, CC(C)C[C@H](N)C(=O)N1CC2(CCNCC2)C2=CC(Cl)=CC=C12]: the IC50 in [3] (read-out: Stg V Gam dose response IC50 (µM) (n=3), 10-point dose response, n=3, 72 h) is 3.02 µM; in series [1], 0.553 µM; in [2], 1.79 µM; in the series on P. falciparum Dd2, 1.52 µM. In addition, in series [3] (read-out: Stg V Gam primary screen: Inhibition % (2uM) (n=2)), the inhibition at 2 µM amounted to 49.8%.
For `Cc1ccc(-c2ccccc2CC2(C(=O)NC(C)C)CCCNC2)cc1` (centres unmarked) [DDD01056815], the IC50 in series [1] is 0.863 µM; in series [2] it was more than 4.16 µM; with P. falciparum Dd2, more than 4.16 µM.
Turning to `CN(C)CCNC(=O)c1sc2ccccc2c1C1CCC(CN)CC1` (centres unmarked) [DDD01058779], the results for the IC50 (in series [1]; in series [2]; in the series with P. falciparum Dd2) were 2.3 µM, 1.31 µM and 1.65 µM, respectively.
For the compound `CCOC(=O)C1(Cc2ccccc2-c2ccccc2OC)CCNCC1` [DDD01059034], the IC50 was 0.861 µM in [1], 5.11 µM in [2] and more than 4.16 µM with P. falciparum Dd2.
As to `CNc1nc(C)c(-c2nc(-c3c(C)ncc4c3CCNC4)no2)s1` [DDD01244276], the IC50 in series [1] was 0.337 µM; in series [2], 0.956 µM; in the series on P. falciparum Dd2, 1.65 µM.
As to `Cc1cc(N2CCC(NC(C)Cc3ccsc3)CC2)nc(N)n1` (centres unmarked) [DDD01252553], the 50% inhibitory concentration (IC50) in series [1] is 0.246 µM; in [2] it was 1.11 µM; with P. falciparum Dd2, 1.01 µM.
`c1ccc(-c2ccc(C3CNCCO3)nc2)cc1` (centres unmarked) [DDD01270216]: the IC50 was 220 nM in [4] (read-out: rLuc IC50); more than 25000 nM in [6] (HepG2-A16-CD81, read-out: HepG2 tox IC50); 1.44 µM in series [1]; 1.77 µM in series [2]; less than 0.141 nM in series [7] (HepG2-A16-CD81, 48 h, 48 h liver stage, HepG2-A16-CD81, read-out: Pbluc (EEF) IC50); more than 12.5 µM in the series with P. falciparum Dd2. The inhibition at 2 µM in series [5] was found to be 6.27%.
Regarding `c1ccc(CCCN2CCN(c3ccc4nncn4n3)CC2)cc1` [DDD01295523], the IC50 in [1] amounted to 0.912 µM; in series [2] it was 3.86 µM.
`COc1cc(C(=O)NCc2ccc3c(c2)CCCN3C)cc(OC)c1Br` [DDD01300030]: the IC50 in [1] was 2.46 µM; in [2], 5.74 µM; in the series with P. falciparum Dd2 it was more than 12.5 µM.
On the same counts, the results for `COc1ccc(CNCC2CCN(CC(C)O)CC2)c2ccccc12` (centres unmarked) [DDD01302860] are 0.621 µM, 1.27 µM and 0.743 µM.
`CCS(=O)(=O)N1[CH]Cc2ccc(NC(=O)Nc3cccc(C#N)c3)cc21` [UCSD-0785775]: the Emax in [4] (dose response, maximum inhibition, read-out: rLuc inhibition dose response: Maximum inhibition (%)) was found to be 6.44%; in series [7] (HepG2-A16-CD81, 48 h, 12pt dose response, maximum inhibition), 91.5%. Further, the IC50 was more than 25000 nM in series [4] (dose response, read-out: rLuc inhibition dose response: IC50); more than 25000 nM in “in vitro”; 1360 nM in [7] (HepG2-A16-CD81, read-out: PbLuc 12pt dose response: IC50). Also, in series [6] (12pt dose response, maximum inhibition), the “HepG2 cytotoxicity 12pt dose response: Maximum inhibition (%)” value was determined as 52.4%. The inhibition at 2 µM in the series “in vitro” is -2.63%; in series [7] (HepG2-A16-CD81, primary screen, 2 uM), -22.1%. The inhibition at 10 µM was determined as 39.2% in the series “in vitro” and 86.7% in series [7] (HepG2-A16-CD81, primary screen, 10 uM).
In the case of `O=C1[C@@H]2CC[C@@H](CN(c3ncnc4ccsc34)C2)N1CC1CC1` [UCSD-0827296], the inhibition at 2 µM in “in vitro” was -8.03%.
In the case of `O=C1NCCN1C1CCCN(Cc2coc(-c3ccc(F)cc3)n2)C1` (centres unmarked) [UCSD-0845351], the inhibition at 2 µM in the series “in vitro” was determined as 0.09%.

A word on the IC50: it is the concentration that gives 50% inhibition.
